Consider eleven molecules from ChEMBL document CHEMBL1955849, “Design and synthesis of thiourea compounds that inhibit transmembrane anchored carbonic anhydrases” (Bioorg Med Chem, 2012).

By Ki is commonly meant the dissociation constant of the complex between target and ligand, obtained from inhibition or displacement. Higher therefore signals weaker binding.

SMILES strings stand for the structures.

Experiment [1] has as its target Carbonic anhydrase 1 (Homo sapiens, UniProt P00915).
Experiment [2] has as its target Carbonic anhydrase 2 (Homo sapiens, UniProt P00918).
Experiment [3] concerns the target Carbonic anhydrase 12 (Homo sapiens, UniProt O43570).
Experiment [4] addresses Carbonic anhydrase 14 (Homo sapiens, UniProt Q9ULX7).
The target of experiment [5] is Carbonic anhydrase 9 (Homo sapiens, UniProt Q16790).

Sequence of Carbonic anhydrase 14 (Q9ULX7 whole entry): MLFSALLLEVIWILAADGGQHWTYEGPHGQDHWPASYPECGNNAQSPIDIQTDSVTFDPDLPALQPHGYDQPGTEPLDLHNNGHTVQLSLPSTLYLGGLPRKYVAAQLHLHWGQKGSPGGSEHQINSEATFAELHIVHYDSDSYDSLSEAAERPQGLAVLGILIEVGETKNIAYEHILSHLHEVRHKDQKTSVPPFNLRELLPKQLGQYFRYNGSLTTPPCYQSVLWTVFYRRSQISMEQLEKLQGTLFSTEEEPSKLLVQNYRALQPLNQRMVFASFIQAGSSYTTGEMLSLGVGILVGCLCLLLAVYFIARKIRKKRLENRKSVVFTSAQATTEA
Sequence of Carbonic anhydrase 12 (O43570 whole entry): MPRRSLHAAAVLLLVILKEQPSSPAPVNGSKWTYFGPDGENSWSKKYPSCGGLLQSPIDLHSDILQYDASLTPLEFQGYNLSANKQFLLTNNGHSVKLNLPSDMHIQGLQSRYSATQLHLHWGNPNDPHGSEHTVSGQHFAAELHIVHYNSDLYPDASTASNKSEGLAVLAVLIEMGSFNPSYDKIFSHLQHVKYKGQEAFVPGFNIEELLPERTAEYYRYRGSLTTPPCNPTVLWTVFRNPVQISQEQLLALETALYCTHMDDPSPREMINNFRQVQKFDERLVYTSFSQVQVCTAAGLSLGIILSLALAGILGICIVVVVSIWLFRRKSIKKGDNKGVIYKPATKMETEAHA
Sequence of Carbonic anhydrase 1 (P00915 whole entry): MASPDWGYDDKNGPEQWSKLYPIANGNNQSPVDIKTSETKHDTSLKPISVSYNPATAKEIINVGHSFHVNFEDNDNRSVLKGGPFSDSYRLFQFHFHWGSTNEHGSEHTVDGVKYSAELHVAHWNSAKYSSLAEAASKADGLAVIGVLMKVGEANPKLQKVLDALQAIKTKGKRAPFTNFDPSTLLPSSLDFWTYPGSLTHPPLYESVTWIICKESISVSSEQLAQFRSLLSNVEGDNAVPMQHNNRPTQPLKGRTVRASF

Regarding `CC(=O)OC[C@H]1O[C@@H](O[C@H]2[C@H](OC(C)=O)[C@@H](OC(C)=O)[C@H](NC(=S)NCc3ccc(S(N)(=O)=O)cc3)O[C@@H]2COC(C)=O)[C@H](OC(C)=O)[C@@H](OC(C)=O)[C@H]1OC(C)=O`, the Ki in experiment [1] was 110 nM; in experiment [2], 390 nM; in experiment [3], 7.4 nM; in experiment [4], 8.5 nM.
Take `CC(=O)OC[C@H]1O[C@@H](O[C@H]2[C@H](OC(C)=O)[C@@H](OC(C)=O)[C@H](NC(=S)NCCc3ccc(S(N)(=O)=O)cc3)O[C@@H]2COC(C)=O)[C@H](OC(C)=O)[C@@H](OC(C)=O)[C@H]1OC(C)=O`: the inhibition constant (Ki) worked out at 362 nM in experiment [5]; 3770 nM in experiment [1]; 8.7 nM in experiment [2]; 48.1 nM in experiment [3]; 9.1 nM in experiment [4].
As for `CC(=O)OC[C@H]1O[C@@H](NC(=S)NCc2ccc(S(N)(=O)=O)cc2)[C@H](OC(C)=O)[C@@H](OC(C)=O)[C@@H]1O[C@H]1O[C@H](COC(C)=O)[C@@H](OC(C)=O)[C@H](OC(C)=O)[C@H]1OC(C)=O`, the Ki is 4570 nM in experiment [1], 7.3 nM in experiment [2], 8.4 nM in experiment [3] and 8.6 nM in experiment [4].
For `CC(=O)OC[C@H]1O[C@@H](NC(=S)NCc2ccc(S(N)(=O)=O)cc2)[C@H](OC(C)=O)[C@@H](OC(C)=O)[C@H]1OC(C)=O`, the Ki in experiment [1] was 6340 nM; in experiment [2], 11.9 nM; in experiment [3] it was 100 nM; in experiment [4], 807 nM.
For `CC(=O)OC[C@H]1O[C@@H](NC(=S)Nc2ccc(S(N)(=O)=O)cc2)[C@H](OC(C)=O)[C@@H](OC(C)=O)[C@H]1OC(C)=O` the same measures were 6710 nM, 524 nM, 45.6 nM and 126 nM.
For `CC(=O)OC[C@H]1O[C@@H](NC(=S)Nc2ccc(S(N)(=O)=O)cc2)[C@H](OC(C)=O)[C@@H](OC(C)=O)[C@@H]1O[C@H]1O[C@H](COC(C)=O)[C@@H](OC(C)=O)[C@H](OC(C)=O)[C@H]1OC(C)=O`, in that order: 6040 nM, 539 nM, 10.1 nM and 7.9 nM.
For `CC(=O)OC[C@H]1O[C@@H](O[C@H]2[C@H](OC(C)=O)[C@@H](OC(C)=O)[C@H](NC(=S)Nc3ccc(S(N)(=O)=O)cc3)O[C@@H]2COC(C)=O)[C@H](OC(C)=O)[C@@H](OC(C)=O)[C@H]1OC(C)=O`, in that order: 100 nM, 7.6 nM, 8.2 nM and 8.6 nM.
On to `CC(=O)OC[C@H]1O[C@@H](NC(=S)NNC(=O)c2ccc(S(N)(=O)=O)cc2)[C@H](OC(C)=O)[C@@H](OC(C)=O)[C@@H]1O[C@H]1O[C@H](COC(C)=O)[C@@H](OC(C)=O)[C@H](OC(C)=O)[C@H]1OC(C)=O`, for which the Ki is 2940 nM in experiment [1], 10.2 nM in experiment [2], 7.6 nM in experiment [3] and 10.5 nM in experiment [4].
For `CC(=O)OC[C@H]1O[C@@H](NC(=S)Nc2ccc(S(N)(=O)=O)cc2)[C@H](OC(C)=O)[C@@H](OC(C)=O)[C@@H]1OC(C)=O` the same measures were 4930 nM, 7 nM, 7.2 nM and 8.3 nM.
As to `CC(=O)OC[C@H]1O[C@@H](O[C@H]2[C@H](OC(C)=O)[C@@H](OC(C)=O)[C@H](NC(=S)NNC(=O)c3ccc(S(N)(=O)=O)cc3)O[C@@H]2COC(C)=O)[C@H](OC(C)=O)[C@@H](OC(C)=O)[C@H]1OC(C)=O`, the Ki in experiment [1] stood at 5900 nM; in experiment [2], 6.4 nM; in experiment [3] it was 8.1 nM; in experiment [4], 10.6 nM.
For `CC(=O)OC[C@H]1O[C@@H](NC(=S)NCc2ccc(S(N)(=O)=O)cc2)[C@H](OC(C)=O)[C@@H](OC(C)=O)[C@@H]1OC(C)=O`, in that order: 100 nM, 7.8 nM, 7.5 nM and 8.5 nM.
